Assay results published in ChEMBL document CHEMBL3885881, “DrugMatrix”.

Species on record: Rattus norvegicus
Test: DrugMatrix - Regimen: Daily Repeat
Type: toxicity, organism-based, Sprague-Dawley
Parameters: regimen Daily Repeat, gender Male, age 6-8 weeks
Conditions: in vivo, po, route oral GAVAGE, vehicle .5 % CMC; for ABSOLUTE BASOPHIL / ABSOLUTE EOSINOPHIL / ABSOLUTE LYMPHOCYTE / ABSOLUTE MONOCYTE / ABSOLUTE SEGMENTED NEUTROPHIL / BASOPHIL / EOSINOPHIL / ERYTHROCYTE COUNT / HEMATOCRIT / HEMOGLOBIN / LEUKOCYTE COUNT / LYMPHOCYTE / MEAN CORPUSCULAR HEMOGLOBIN / MEAN CORPUSCULAR HEMOGLOBIN CONCENTRATION / MEAN CORPUSCULAR VOLUME / MONOCYTE / NEUTROPHIL / NUCLEATED RED BLOOD CELLS / PLATELET COUNT: tissue Blood; for ALANINE AMINOTRANSFERASE / ALBUMIN / ALKALINE PHOSPHATASE / ASPARTATE AMINOTRANSFERASE / BLOOD UREA NITROGEN / CARBON DIOXIDE / CHLORIDE / CHOLESTEROL / CREATINE PHOSPHOKINASE / CREATININE / GLUCOSE / LACTATE DEHYDROGENASE / LIPASE / PHOSPHORUS / POTASSIUM / SODIUM / TOTAL BILIRUBIN / TOTAL PROTEIN / URIC ACID: tissue Plasma
[1] = 2000 mg/kg, 120 h, dose level High, time 5 day
[2] = […], 72 h, dose 9.5 mg/Kg, dose level Low, time 3 day
[3] = […], 120 h, dose 9.5 mg/Kg, dose level Low, time 5 day

In the case of `O=C1Nc2ccc(Cl)cc2C(c2ccccc2Cl)=NC1O` (centres undefined) [LORAZEPAM], the “ABSOLUTE BASOPHIL” value [1] is reported as 0 CELLS/uL, the “ABSOLUTE EOSINOPHIL” value [1] is reported as 0 CELLS/uL and the “ABSOLUTE LYMPHOCYTE” value [1] is reported as 9298.5 CELLS/uL. For the same molecule, the “ABSOLUTE MONOCYTE” value [1] was 148 CELLS/uL, the “ABSOLUTE SEGMENTED NEUTROPHIL” value [1] was 903.5 CELLS/uL and the BASOPHIL [1] was 0%. For the same molecule, the EOSINOPHIL [1] was 0%, the “ERYTHROCYTE COUNT” value [1] was 6.25 x10E6/uL and the HEMATOCRIT [1] was 36.95%. For the same molecule, the HEMOGLOBIN [1] was 14.95 G/DL, the “LEUKOCYTE COUNT” value [1] was 10.35 x10E3/uL and the LYMPHOCYTE [1] was 89%. The “MEAN CORPUSCULAR HEMOGLOBIN” value [1] was 23.95 pg, the “MEAN CORPUSCULAR HEMOGLOBIN CONCENTRATION” value [1] was 40.5 G/DL and the “MEAN CORPUSCULAR VOLUME” value [1] was 59.1 fL. For the same molecule, the MONOCYTE [1] was 1.5%, the NEUTROPHIL [1] was 9.5% and the “NUCLEATED RED BLOOD CELLS” value [1] was 0 /100WBC. For the same molecule, the “PLATELET COUNT” value [1] was 1267 x10E3/uL, the “ALANINE AMINOTRANSFERASE” value [1] was 64.5 u/L and the ALBUMIN [1] was 4.15 G/DL. The “ALKALINE PHOSPHATASE” value [1] was 283.5 u/L, the “ASPARTATE AMINOTRANSFERASE” value [1] was 92 u/L and the “BLOOD UREA NITROGEN” value [1] was 21.5 mg/dL. For the same molecule, the “CARBON DIOXIDE” value [1] was 29.5 mmol/L, the CHLORIDE [1] was 100.5 MEQ/L and the CHOLESTEROL [1] was 76.5 mg/dL. For the same molecule, the “CREATINE PHOSPHOKINASE” value [1] was 814 u/L, the CREATININE [1] was 0.18 mg/dL and the GLUCOSE [1] was 150.5 mg/dL. The “LACTATE DEHYDROGENASE” value [1] was 206 u/L, the LIPASE [1] was 17.5 u/L and the PHOSPHORUS [1] was 8.55 mg/dL. The POTASSIUM [1] was 5.62 MEQ/L, the SODIUM [1] was 145.4 MEQ/L and the “TOTAL BILIRUBIN” value [1] was 0.1 mg/dL. The “TOTAL PROTEIN” value [1] was 6.2 G/DL, the “URIC ACID” value [1] was 0.65 mg/dL and the “ABSOLUTE BASOPHIL” value [2] was 0 CELLS/uL. For the same molecule, the “ABSOLUTE EOSINOPHIL” value [2] was 223.33 CELLS/uL, the “ABSOLUTE LYMPHOCYTE” value [2] was 14276.33 CELLS/uL and the “ABSOLUTE MONOCYTE” value [2] was 155.67 CELLS/uL. The “ABSOLUTE SEGMENTED NEUTROPHIL” value [2] was 1244.67 CELLS/uL, the BASOPHIL [2] was 0% and the EOSINOPHIL [2] was 1.33%. The “ERYTHROCYTE COUNT” value [2] was 5.67 x10E6/uL, the HEMATOCRIT [2] was 36.03% and the HEMOGLOBIN [2] was 13.93 G/DL. For the same molecule, the “LEUKOCYTE COUNT” value [2] was 15.9 x10E3/uL, the LYMPHOCYTE [2] was 89.67% and the “MEAN CORPUSCULAR HEMOGLOBIN” value [2] was 24.57 pg. For the same molecule, the “MEAN CORPUSCULAR HEMOGLOBIN CONCENTRATION” value [2] was 38.67 G/DL, the “MEAN CORPUSCULAR VOLUME” value [2] was 63.57 fL and the MONOCYTE [2] was 1%. The NEUTROPHIL [2] was 8%, the “NUCLEATED RED BLOOD CELLS” value [2] was 0 /100WBC and the “PLATELET COUNT” value [2] was 1298 x10E3/uL. For the same molecule, the “ALANINE AMINOTRANSFERASE” value [2] was 70 u/L, the ALBUMIN [2] was 4.33 G/DL and the “ALKALINE PHOSPHATASE” value [2] was 451.67 u/L. For the same molecule, the “ASPARTATE AMINOTRANSFERASE” value [2] was 99.67 u/L, the “BLOOD UREA NITROGEN” value [2] was 17.33 mg/dL and the “CARBON DIOXIDE” value [2] was 24 mmol/L. The CHLORIDE [2] was 102.67 MEQ/L, the CHOLESTEROL [2] was 65.67 mg/dL and the “CREATINE PHOSPHOKINASE” value [2] was 485.67 u/L. The CREATININE [2] was 0.22 mg/dL, the GLUCOSE [2] was 158 mg/dL and the “LACTATE DEHYDROGENASE” value [2] was 594 u/L. The LIPASE [2] was 11 u/L, the PHOSPHORUS [2] was 10.17 mg/dL and the POTASSIUM [2] was 6.03 MEQ/L. For the same molecule, the SODIUM [2] was 142.63 MEQ/L, the “TOTAL BILIRUBIN” value [2] was 0.13 mg/dL and the “TOTAL PROTEIN” value [2] was 5.93 G/DL. For the same molecule, the “URIC ACID” value [2] was 1.43 mg/dL, the “ABSOLUTE BASOPHIL” value [3] was 0 CELLS/uL and the “ABSOLUTE EOSINOPHIL” value [3] was 0 CELLS/uL. For the same molecule, the “ABSOLUTE LYMPHOCYTE” value [3] was 12357 CELLS/uL, the “ABSOLUTE MONOCYTE” value [3] was 82 CELLS/uL and the “ABSOLUTE SEGMENTED NEUTROPHIL” value [3] was 461 CELLS/uL. The BASOPHIL [3] was 0%, the EOSINOPHIL [3] was 0% and the “ERYTHROCYTE COUNT” value [3] was 6.11 x10E6/uL. For the same molecule, the HEMATOCRIT [3] was 37.87%, the HEMOGLOBIN [3] was 14.63 G/DL and the “LEUKOCYTE COUNT” value [3] was 12.9 x10E3/uL. For the same molecule, the LYMPHOCYTE [3] was 95.67%, the “MEAN CORPUSCULAR HEMOGLOBIN” value [3] was 23.97 pg and the “MEAN CORPUSCULAR HEMOGLOBIN CONCENTRATION” value [3] was 38.63 G/DL. The “MEAN CORPUSCULAR VOLUME” value [3] was 62.07 fL, the MONOCYTE [3] was 0.67% and the NEUTROPHIL [3] was 3.67%. For the same molecule, the “NUCLEATED RED BLOOD CELLS” value [3] was 0 /100WBC, the “PLATELET COUNT” value [3] was 1313 x10E3/uL and the “ALANINE AMINOTRANSFERASE” value [3] was 62 u/L. The ALBUMIN [3] was 4.13 G/DL, the “ALKALINE PHOSPHATASE” value [3] was 373.33 u/L and the “ASPARTATE AMINOTRANSFERASE” value [3] was 87.67 u/L. For the same molecule, the “BLOOD UREA NITROGEN” value [3] was 12 mg/dL, the “CARBON DIOXIDE” value [3] was 25 mmol/L and the CHLORIDE [3] was 104.33 MEQ/L. For the same molecule, the CHOLESTEROL [3] was 26.67 mg/dL, the “CREATINE PHOSPHOKINASE” value [3] was 550.33 u/L and the CREATININE [3] was 0.15 mg/dL. For the same molecule, the GLUCOSE [3] was 136.33 mg/dL, the “LACTATE DEHYDROGENASE” value [3] was 527.67 u/L and the LIPASE [3] was 9.33 u/L. It also gave a PHOSPHORUS [3] of 10.97 mg/dL, a POTASSIUM [3] of 6.04 MEQ/L and an SODIUM [3] of 143.63 MEQ/L. The “TOTAL BILIRUBIN” value [3] was 0.13 mg/dL, the “TOTAL PROTEIN” value [3] was 5.8 G/DL and the “URIC ACID” value [3] was 1.67 mg/dL.
